Results: ChEMBL document CHEMBL4325927, “Synthesis, Anti-HBV, and Anti-HIV Activities of 3'-Halogenated Bis(hydroxymethyl)-cyclopentenyladenines” (ACS Med Chem Lett, 2018)

Legend:
[1] = Cytotoxicity against human MT2 cells after 7 days by MTT assay; type: cell-based
[2] = system: Human immunodeficiency virus 1; experiment: Antiviral activity against HIV-1 3B infected in human MT2 cells assessed as inhibition of virus-induced cytopathic effect after 7 days by MTT assay; type: functional, organism-based; conditions: Human immunodeficiency virus 1, 3B, MT2, 168 h
HBV genotype D = experiment: Antiviral activity against HBV genotype D infected in human HepG2.2.15 cells assessed as reduction in viral DNA level after 7 days by RT-PCR assay; type: functional, organism-based; conditions: Hepatitis B virus, HepG2.2.15, 168 h
[3] = Cytotoxicity against human HepG2.2.15 cells after 7 days by MTT assay; type: cell-based, HepG2 2.2.15
[4] = Selectivity index, ratio of CC50 for cytotoxicity against human HepG2.2.15 cells to EC50 for HBV genotype D infected in human HepG2.2.15 cells; type: toxicity, cell-based; conditions: read-out: Ratio CC50/EC50

Compound | EC50 (HBV genotype D) | CC50 at 168 h [1] | EC50 [2] | CC50 at 168 h [3] | selectivity ratio [4]
Nc1ncnc2c1ncn2[C@H]1C=C(F)[C@H](CO)[C@H]1CO | 0.019 µM | > 100 µM | > 100 µM | > 100 µM | 5260
Nc1ncnc2c1ncn2[C@H]1C=C(I)[C@H](CO)[C@H]1CO | 0.436 µM | > 100 µM | > 100 µM | – | –
Nc1ncnc2c1ncn2[C@@H]1C=C[C@H](CO)[C@H]1CO | 0.0457 µM | 153 µM | 0.77 µM | > 100 µM | –

Further lines, with some results ahead:

EC50 (HBV genotype D) | Compound | CC50 at 168 h [1] | EC50 [2] | CC50 at 168 h [3] | selectivity ratio [4]
0.0038 µM | C=C1[C@H](CO)[C@@H](O)C[C@@H]1n1cnc2c(=O)[nH]c(N)nc21 [ENTECAVIR] | – | – | 52.9 µM | –
0.029 µM | Nc1ncnc2c1ncn2[C@H]1C=C(Br)[C@H](CO)[C@H]1CO | > 100 µM | > 100 µM | > 100 µM | –
0.146 µM | Nc1ncnc2c1ncn2[C@H]1C=C(Cl)[C@H](CO)[C@H]1CO | > 100 µM | > 100 µM | – | –
